Assay results published in article PMC3121697, “Predicting Binding to P-Glycoprotein by Flexible Receptor Docking” (PLoS Computational Biology, 2011).
Like-named read-outs stand apart in the source and are kept apart here.

Columns and labels:
[1] = tested on: P-gp; details: cited from earlier work
[2] = tested on: P-gp; details: metabolites with favorable scores reassigned to the binders set; cited from earlier work
[3] = in vitro; details: dog, MDCK-MDR1, pH 7.4
Description: (§1) Permeability measurements were performed by Wuxi Apptec, using the following procedures.
(§2) Test compounds were diluted with the transport buffer (HBSS, pH 7.4) from a 10 mM stock solution to a concentration of 2 µM and applied to the apical (A) or basolateral (B) side of the cell monolayer. […] In addition, the efflux ratio of each compound was also determined. Test and reference compounds were quantified by LC-MS/MS analysis based on the peak area ratio of analyte/IS.
(§3) The apparent permeability coefficient Papp (cm/s) was calculated using the equation: [drawing 1] where dCr/dt is the cumulative concentration of compound in the receiver chamber as a function of time (µM/s); Vr is the solution volume in the receiver chamber (0.075 mL on the apical side, 0.25 mL on the basolateral side); A is the surface area for the transport, i.e. 0.084 cm^2 for the area of the monolayer; C0 is the initial concentration in the donor chamber (µM).
(§4) The efflux ratio (ER) was calculated using the equation: [drawing 2]
(§5) Percent recovery was calculated using the equation: [drawing 3] Where Vd is the volume in the donor chambers (0.075 mL on the apical side, 0.25 mL on the basolateral side); Cd and Cr are the final concentrations of transport compound in donor and receiver chambers, respectively. Cc is the compound concentration in the cell lysate solution (µM), and Vc is the volume of insert well (0.075 mL in this assay).
(§6) Permeability determinations were performed in triplicate and are reported as mean values.

[4] = tested on: MDCK-MDR1 cells; test: MDCK-MDR1 monolayer permeability assay; details: 2 µM, 150 min
Description: as §1, §2, §3, §4, §5, §6

[5] = tested on: P-gp; parameters: method as in Aller paper [29]; details: reported value; ref Aller paper [29]; read-out: IC50 for inhibition of verapamil-stimulated ATPase activity; cited from earlier work
[6] = Table S4, Doan et al. dataset, both assays positive or both negative

| Compound | P-gp interaction [1, 6] | P-gp interaction ([1]; not told) | also measured |
| --- | --- | --- | --- |
| OC(CCN1CCCCC1)(c1ccccc1)C1CC2C=CC1C2 [(R)-Biperiden] | N |  |  |
| CN(C)CC[C@H](c1ccc(Cl)cc1)c1ccccn1 [(R)-Chlorpheniramine] |  | N |  |
| CN(C)CCO[C@](C)(c1ccccc1)c1ccccn1 [(R)-Doxylamine] |  | N |  |
| CN[C@@]1(c2ccccc2Cl)CCCCC1=O [(R)-Ketamine] |  | N |  |
| COc1ccc2c(c1)N(C[C@H](C)CN(C)C)c1ccccc1S2 [(R)-Levomeprazine] | Y |  |  |
| c1ccc2c(c1)Sc1ccccc1N2C[C@H]1CN2CCC1CC2 [(R)-Mequitazine] | Y |  |  |
| COCCc1ccc(OC[C@H](O)CNC(C)C)cc1 [(R)-Metoprolol] | N |  |  |
| C=CCOc1ccccc1OC[C@H](O)CNC(C)C [(R)-Oxprenolol] | N |  |  |
| CN(C)CC[C@H](c1ccccc1)c1ccccn1 [(R)-Pheniramine] |  | N |  |
| CC(=O)C[C@H](c1ccccc1)c1c(O)c2ccccc2oc1=O [(R)-Warfarin] |  | N |  |
| CC(C)(C)c1ccc([C@H](O)CCCN2CCC(C(O)(c3ccccc3)c3ccccc3)CC2)cc1 [(R)-terfenadine] |  | Y |  |
| OC(CCN1CCCCC1)(c1ccccc1)C1CC2C=CC1C2 [(S)-Biperiden] | N |  |  |
| CN(C)CC[C@@H](c1ccc(Cl)cc1)c1ccccn1 [(S)-Chlorpheniramine] |  | N |  |
| CN(C)CCO[C@@](C)(c1ccccc1)c1ccccn1 [(S)-Doxylamine] |  | N |  |
| CN[C@]1(c2ccccc2Cl)CCCCC1=O [(S)-Ketamine] |  | N |  |
| c1ccc2c(c1)Sc1ccccc1N2CC1CN2CCC1CC2 [(S)-Mequitazine] | Y |  |  |
| COCCc1ccc(OC[C@@H](O)CNC(C)C)cc1 [(S)-Metoprolol] | N |  |  |
| C=CCOc1ccccc1OC[C@@H](O)CNC(C)C [(S)-Oxprenolol] | N |  |  |
| CN(C)CC[C@@H](c1ccccc1)c1ccccn1 [(S)-Pheniramine] |  | N |  |
| CC(=O)C[C@@H](c1ccccc1)c1c(O)c2ccccc2oc1=O [(S)-Warfarin] |  | N |  |
| CC(C)(C)c1ccc([C@@H](O)CCCN2CCC(C(O)(c3ccccc3)c3ccccc3)CC2)cc1 [(S)-terfenadine] |  | Y |  |
| NC12CC3CC(CC(C3)C1)C2 [Amantadine] | N |  |  |
| Cc1cc(=O)n(-c2ccccc2)n1C [Antipyrine] |  | N |  |
| COc1ccc(CCN2CCC(Nc3nc4ccccc4n3Cc3ccc(F)cc3)CC2)cc1 [Astemizole] |  | Y |  |
| NC(=O)N1c2ccccc2C=Cc2ccccc21 [Carbamazepine] | N |  |  |
| CC(C)CCC[C@@H](C)[C@H]1CC[C@H]2[C@@H]3CC=C4C[C@@H](O)CC[C@]4(C)[C@H]3CC[C@]12C [Cholesterol**, Cholesterol] |  |  | Reported interaction with P-gp [2]: interact with P-gp |

| Compound | P-gp interaction [1, 6] | P-gp interaction ([1]; not told) | also measured |
| --- | --- | --- | --- |
| Clc1cccc(Cl)c1N=C1NCCN1 [Clonidine] | N |  |  |
| N#CCNC(=O)[C@H](Cc1c[nH]cn1)NC(=O)OCc1ccccc1 [Compound 9] |  |  | Papp B→A at 150 min, 2 µM [3]: 2.9 ×10⁻⁶ cm/s; Papp at 150 min, 2 µM [3]: 0.5 ×10⁻⁶ cm/s; Mean Efflux Ratio [4]: 5.8; Mean Papp A to B ([4]; 37°C, pH 7.4, triplicate mean): 0.51 10^−6 cm/s |
| N=C(N)N/N=C/c1c(Cl)cccc1Cl [Guanabenz] | N |  |  |
| N=C(N)NC(=O)Cc1c(Cl)cccc1Cl [Guanfacine] | N |  |  |
| CN(C)CCCN1c2ccccc2CCc2ccccc21 [Imipramine] | N |  |  |
| COc1ccc2c(c1)c(CC(=O)O)c(C)n2C(=O)c1ccc(Cl)cc1 [Indomethacin] | N |  |  |
| CN(C)C(=O)C(CCN1CCC(O)(c2ccc(Cl)cc2)CC1)(c1ccccc1)c1ccccc1 [Loperamide] |  | Y |  |
| OC[C@@H](O)[C@@H](O)[C@H](O)[C@H](O)CO [Mannitol] | N |  |  |
| CNC(C)(C)Cc1ccccc1 [Mephentermine] | N |  |  |
| CCCC(C)(COC(N)=O)COC(N)=O [Meprobamate] |  | N |  |
| C=CCN1CC[C@]23c4c5ccc(O)c4O[C@H]2C(=O)CC[C@@]3(O)[C@H]1C5 [Naloxone] | N |  |  |
| Cc1c(O)cccc1C(=O)N[C@@H](CSc1ccccc1)[C@H](O)CN1C[C@H]2CCCC[C@H]2C[C@H]1C(=O)NC(C)(C)C [Nelfinavir] | Y |  |  |
| O=C1CN=C(c2ccccc2)c2cc([N+](=O)[O-])ccc2N1 [Nitrazepam] |  | N |  |
| CC(=O)[C@H]1CC[C@H]2[C@@H]3CCC4=CC(=O)CC[C@]4(C)[C@H]3CC[C@]12C [Progesterone**, Progesterone] |  |  | Reported interaction with P-gp [2]: interact with P-gp |
| CNCCCC1c2ccccc2C=Cc2ccccc21 [Protriptylene] | Y |  |  |
| CC(C)(C)NC(=O)[C@@H]1C[C@@H]2CCCC[C@@H]2CN1C[C@@H](O)[C@H](Cc1ccccc1)NC(=O)[C@H](CC(N)=O)NC(=O)c1ccc2ccccc2n1 [Saquinavir] | Y |  |  |
| O=C(O)c1cc(/N=N/c2ccc(S(=O)(=O)Nc3ccccn3)cc2)ccc1O [Sulfasalazine] |  |  | P-gp interaction ([1]; Table S5, Doan et al. dataset, both assays positive or both negative): N |
| O=C(O)c1cc(/N=N/c2ccc(S(=O)(=O)Nc3ccccn3)cc2)ccc1O [Sulfasalazine_a*, Sulfasalazine] | N |  |  |
| O=C(O)c1cc(/N=N/c2ccc(S(=O)(=O)Nc3ccccn3)cc2)ccc1O [Sulfasalazine_b*, Sulfasalazine] | N |  |  |
| CNS(=O)(=O)Cc1ccc2[nH]cc(CCN(C)C)c2c1 [Sumatriptan] | N |  |  |
| Nc1c2c(nc3ccccc13)CCCC2 [Tacrine] |  | N |  |
| NC(Cc1cc(I)c(Oc2cc(I)c(O)c(I)c2)c(I)c1)C(=O)O (stereo not shown) [Thyroxine**, Thyroxine] |  |  | Reported interaction with P-gp [2]: interact with P-gp |
| C=C1CC[C@H](O)C/C1=C/C=C1\CCC[C@]2(C)[C@@H]([C@H](C)CCCC(C)C)CC[C@@H]12 [Vitamin D3**, Vitamin D3] |  |  | Reported interaction with P-gp [2]: interact with P-gp |
| CN(C)C/C=C(/c1ccc(Br)cc1)c1cccnc1 [Zimeldine] | N |  |  |
| (S)-Levomeprazine | Y |  |  |
| QZ59-RRR |  |  | IC50 [5]: 4.8 ± 2.6 µM |
